# Data as given in patent US4366311A, “Novel dianemycin derivative” (Taisho Pharmaceutical Co., Ltd., priority 1980, dated 1982).
# Structures can show the parent of a compound that is named as a salt.
# Tests used:
# toxoplasma RH strain = assay: Anti-toxoplasma effect in cultivated mouse macrophage (Test Example 1); assay type: cell-based, in macrophage of normal ICR mice; settings: 0.1 ppm compound in medium, 37° C., 48 hours
# Protocol: (§1) Normal ICR mice were intraperitoneally injected with 1 ml of a sterilized 0.2% solution of glycogen in saline solution and, after 5 days, intraperitoneally injected with 5 ml of a Hank's solution containing heparin to collect macrophage.
# (§2) After centrifugation and washing, the macrophage was diluted with a medium of TC-199 containing 20% of calf serum so that the resulting solution contained about 10^6 cells/ml of macrophage. 1 ml of this suspension was pipetted into a cultivation Petri dish containing circular cover glass of 1.5 cm in diameter, followed by cultivation for 24 hours in an incubator containing 5% of carbon dioxide.
# (§3) 5×10^5 toxiplasma RH strain collected on the 2nd day after intraperitoneal infection of mice were brought into contact with the thus cultivated macrophage at 37° C. for about 1 hour, and non-infectingtoxiplasma RH strain were washed away using the same medium followed by adding thereto the same medium.
# (§4) A drug-containing group was prepared by adding compound I sodium salt to the medium so that the final concentration of the compound became 0.1 ppm.
# (§5) Medical effects were evaluated as follows; After cultivation at 37° C. for 48 hours, May-Grunwald/Giemsa double straining was conducted to determine the percentage of macrophage cells containing therein 1 to 5 toxoplasma or 6 or more toxoplasma, thus the infected control group was compared with the drug-added group.
# macrophage = assay: Cytotoxic effect on macrophage, observation under an optical microscope; assay type: cell-based, ICR mice; settings: 0.1 ppm compound in medium
# Protocol: as §1, §2, §3, §4, §5
# Bacillus licheniformis = assay: MIC, antibacterial effects (Test Example 2); assay type: cell-based; settings: infusion agar medium, read-out: MIC (Minimum Inhibitory Concentration)
# Protocol: (§6) MIC (Minimum Inhibitory Concentration) was measured according to the method specified by the Chemotherapeutic Society using a heat infusion agar medium containing compound I sodium salt, to examine antibacterial effects of the compound.
# [1] = system: Bacillus subtilis ATCC 6633; assay: MIC, antibacterial effects (Test Example 2); assay type: cell-based; settings: ATCC6633, infusion agar medium, read-out: MIC (Minimum Inhibitory Concentration)
# Protocol: as §6
# [2] = system: Escherichia coli NIHJ C-2; assay: MIC, antibacterial effects (Test Example 2); assay type: cell-based; settings: NIHJC2, infusion agar medium, read-out: MIC (Minimum Inhibitory Concentration)
# Protocol: as §6
# [3] = system: Staphylococcus aureus FDA 209 P; assay: MIC, antibacterial effects (Test Example 2); assay type: cell-based; settings: FDA209, infusion agar medium, read-out: MIC (Minimum Inhibitory Concentration)
# Protocol: as §6
# [4] = system: Staphylococcus aureus Smith; assay: MIC, antibacterial effects (Test Example 2); assay type: cell-based; settings: infusion agar medium, read-out: MIC (Minimum Inhibitory Concentration)
# Protocol: as §6
# [5] = system: Staphylococcus aureus TPR-23; assay: MIC, antibacterial effects (Test Example 2); assay type: cell-based; settings: TPR23, infusion agar medium, read-out: MIC (Minimum Inhibitory Concentration)
# Protocol: as §6
# [6] = system: Staphylococcus epidermidis IID 866; assay: MIC, antibacterial effects (Test Example 2); assay type: cell-based; settings: IID866, infusion agar medium, read-out: MIC (Minimum Inhibitory Concentration)
# Protocol: as §6
# [7] = system: Staphylococcus epidermidis TPR-25; assay: MIC, antibacterial effects (Test Example 2); assay type: cell-based; settings: TPR25, infusion agar medium, read-out: MIC (Minimum Inhibitory Concentration)
# Protocol: as §6
# [8] = system: Streptococcus faecalis ATCC 8043; assay: MIC, antibacterial effects (Test Example 2); assay type: cell-based; settings: Enterococcus faecalis, ATCC8043, infusion agar medium, read-out: MIC (Minimum Inhibitory Concentration)
# Protocol: as §6
# [9] = Acute toxicity, LD50 in mice (Test Example 3); set-up: species or system mice (ddY strain, 4-week old); settings: mouse, in vivo, ip; ddY male mice, intraperitoneal, mortality over 7 consecutive days; 5% gum arabic in saline
# Protocol: Compound I sodium salt and the control drug of dianemycin sodium salt were respectively suspended in a 5% solution of gum arabic in saline solution.
# Two groups of 7 ddY strain male mice (4-week old) were intraperitoneally injected with each of the above-described drug suspension. LD50 values (mg/kg) of the compounds were determined from the total mortality per group for 7 consecutive days to examine the acute toxicity.
Compound,"Percentage of Toxoplasma-infected Macrophage, 1 to 5 Toxoplasma/cell (toxoplasma RH strain; infected control group 30.8) [%]","Percentage of Toxoplasma-infected Macrophage, 6 or more Toxoplasma/cell (toxoplasma RH strain; infected control group 31.8) [%]",cytotoxic effect (macrophage),MIC (Bacillus licheniformis) [mg/L],MIC [1] [mg/L],MIC [2] [mg/L],MIC [3] [mg/L],MIC [4] [mg/L],MIC [5] [mg/L],MIC [6] [mg/L],MIC [7] [mg/L],MIC [8] [mg/L],LD50 at 168 h [9] [mg/kg]
C/C(=C\C(C)C1OC2(CCC(C)(C3CC(O)C(C)C4(OC(C5OC(O)(CO)C(C)CC5C)CC4C)O3)O2)CC(O)C1C)C(=O)C(C)CC(C)C(=O)O (centres unmarked) [Compound I sodium salt],0,0,no cytotoxic effect,12.5,25,> 200,25,50,50,50,50,50,191
"COC1CCC(OC2CC(C3(C)CCC4(CC(O)C(C)C(C(C)/C=C(\C)C(=O)C(C)CC(C)C(=O)O)O4)O3)OC3(OC(C4OC(O)(CO)C(C)CC4C)CC3C)C2C)OC1C (centres unmarked) [Dianemycin Sodium Salt, reference compound]",–,–,–,–,–,–,–,–,–,–,–,–,7.2
